According to patent publication US20100298141A1, “SUBSTITUTED PYRIDINE N-OXIDE HERBICIDES” (E. I. DU PONT DE NEMOURS AND COMPANY, priority 2007, published 2010):

Assays:
[1] = test system: duck salad; assay: Test C flooded paddy test; type: in vivo, Heteranthera limosa; conditions: Flood, scale 0 to 100, 0 no effect, 100 complete control, 13 to 15 days
Summary of the method: (§1)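 Pots were flooded to 3 cm above the soil surface at treatment, compound applied directly to the paddy water, and that depth held throughout. Plants were kept in a greenhouse for 13 to 15 days, then visually rated against untreated controls.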

[2] = test system: barnyardgrass; assay: Test C flooded paddy test; type: in vivo, Echinochloa crus-galli; conditions: Flood, scale 0 to 100, 0 no effect, 100 complete control, 13 to 15 days
Summary of the method: as §1

[3] = test system: giant foxtail; assay: Test C pre-/postemergence test; type: in vivo, Setaria faberii
Summary of the method: (§2)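 Compounds in a non-phytotoxic solvent with surfactant applied preemergence to seeded pots and, at the same time, postemergence to plants 2–18 cm tall (1- to 4-leaf stage). Paddy tests: pots flooded to 3 cm, compound applied into the water, depth held throughout.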

[4] = test system: Goosegrass; assay: Test C pre-/postemergence test; type: in vivo, Eleusin indica
Summary of the method: as §2

[5] = test system: velvetleaf; assay: Test A pre-/postemergence greenhouse test; type: in vivo, Abutilon theophrasti; conditions: for Plant response rating, Velvetleaf: 0 to 100 scale where 0 is no effect and 100 is complete control; for Velvetleaf plant response rating: 0 to 100 scale
Summary of the method: (§3)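 Pots of loam–sand soil sown with the test species are sprayed preemergence on the soil surface; emerged seedlings (1–2 leaves, 2–10 cm) are sprayed postemergence at the same time. The vehicle is a non-phytotoxic solvent mixture with surfactant. Injury is scored visually after ~10 d in greenhouse.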

[6] = test system: eastern black nightshade; assay: Test C pre-/postemergence test; type: in vivo, Solanum ptycanthum
Summary of the method: as §2

[7] = test system: wheat; assay: Test A pre-/postemergence greenhouse test; type: in vivo, Triticum aestivum; conditions: for Plant response rating, Wheat: 0 to 100 scale where 0 is no effect and 100 is complete control; for Wheat plant response rating: 0 to 100 scale
Summary of the method: as §3

[8] = test system: redroot pigweed; assay: Test A pre-/postemergence greenhouse test; type: in vivo, Amaranthus retroflexus; conditions: for Plant response rating, Pigweed: 0 to 100 scale where 0 is no effect and 100 is complete control; for Pigweed plant response rating: 0 to 100 scale
Summary of the method: as §3

[9] = test system: bermudagrass; assay: Test C pre-/postemergence test; type: in vivo, Cynodon dactylon
Summary of the method: as §2

[10] = test system: johnsongrass; assay: Test C pre-/postemergence test; type: in vivo, Sorghum halepense
Summary of the method: as §2

[11] = test system: rice; assay: Test C flooded paddy test; type: in vivo, Oryza sativa; conditions: Flood, scale 0 to 100, 0 no effect, 100 complete control, 13 to 15 days
Summary of the method: as §1

[12] = test system: giant foxtail; assay: Test A pre-/postemergence greenhouse test; type: in vivo, Setaria faberi; conditions: for Plant response rating, Foxtail, Giant: 0 to 100 scale where 0 is no effect and 100 is complete control; for Foxtail, Giant plant response rating: 0 to 100 scale
Summary of the method: as §3

[13] = test system: lambsquarters; assay: Test C pre-/postemergence test; type: in vivo, Chenopodium album
Summary of the method: as §2

[14] = test system: wild oat; assay: Test C pre-/postemergence test; type: in vivo, Avena fatua
Summary of the method: as §2

[15] = test system: Surinam grass; assay: Test C pre-/postemergence test; type: in vivo, Brachiaria decumbens
Summary of the method: as §2

[16] = test system: corn; assay: Test A pre-/postemergence greenhouse test; type: in vivo, Zea mays; conditions: for Plant response rating, Corn: 0 to 100 scale where 0 is no effect and 100 is complete control; for Corn plant response rating: 0 to 100 scale
Summary of the method: as §3

[17] = test system: common ragweed; assay: Test C pre-/postemergence test; type: in vivo, Ambrosia elation
Summary of the method: as §2

[18] = test system: velvetleaf; assay: Test C pre-/postemergence test; type: in vivo, Abutilon theophrasti
Summary of the method: as §2

[19] = 62 g ai/ha, Preemergence, scale 0 to 100
[20] = 125 g ai/ha, preemergence, scale 0 (no effect) to 100 (complete control)
[21] = Preemergence, 31 g ai/ha, scale 0 to 100 (0 no effect, 100 complete control)
[22] = preemergence, 250 g ai/ha, scale 0 (no effect) to 100 (complete control)
[23] = Postemergence, 500 g ai/ha, 0 is no effect, 100 is complete control
[24] = Preemergence, 125 g ai/ha, 0 no effect, 100 complete control

CC(c1c(C(F)(F)F)nn(CC(F)(F)F)c1Cl)[S+]([O-])c1cccc[n+]1[O-] (centres unmarked) [Compound 46]
60: Plant response rating, Barnyardgrass ([2]; 250 g ai/ha) | Plant response rating, Wheat ([7]; Preemergence, 500 g ai/ha) | Ragweed plant response rating [17, 22] | Velvetleaf plant response rating [18, 22]
40: Velvetleaf plant response rating [5, 23] | Plant response rating, Pigweed ([8]; Postemergence, 125 g ai/ha) | Plant response rating, Johnsongrass [10, 21]
55: Plant response rating, Rice ([11]; 250 g ai/ha)
20: Plant response rating, Ducksalad ([1]; 250 g ai/ha) | Oat, Wild plant response rating [14, 19] | Oat, Wild plant response rating [14, 20]
30: Plant response rating, Velvetleaf ([5]; Postemergence, 125 g ai/ha)
70: Plant response rating, Foxtail, Giant ([12]; Postemergence, 125 g ai/ha)
50: Plant response rating, Velvetleaf ([5]; Preemergence, 500 g ai/ha) | Wheat plant response rating [7, 23] | Pigweed plant response rating [8, 23] | Oat, Wild plant response rating [14, 22]
0: Velvetleaf plant response rating [5, 24] | Plant response rating, Wheat ([7]; Postemergence, 125 g ai/ha) | Wheat plant response rating [7, 24] | Plant response rating, Lambsquarters [13, 21] | Plant response rating, Oat, Wild [14, 21] | Plant response rating, Corn ([16]; Postemergence, 125 g ai/ha) | Corn plant response rating [16, 23] | Corn plant response rating [16, 24] | Plant response rating, Corn ([16]; Preemergence, 500 g ai/ha) | Ragweed plant response rating [17, 19] | Plant response rating, Ragweed [17, 21] | Velvetleaf plant response rating [18, 19] | Velvetleaf plant response rating [18, 20] | Plant response rating, Velvetleaf [18, 21]
100: Foxtail, Giant plant response rating [3, 19] | Foxtail, Giant plant response rating [3, 20] | Foxtail, Giant plant response rating [3, 22] | Goosegrass plant response rating [4, 19] | Goosegrass plant response rating [4, 20] | Goosegrass plant response rating [4, 22] | Nightshade plant response rating [6, 19] | Nightshade plant response rating [6, 20] | Plant response rating, Pigweed ([8]; Preemergence, 500 g ai/ha) | Bermudagrass plant response rating ([9]; 62 g ai/ha, Preemergence, scale 0 to 100 (0 no effect, 100 complete control)) | Bermudagrass plant response rating [9, 20] | Plant response rating, Bermudagrass [9, 21] | Bermudagrass plant response rating [9, 22] | Johnsongrass plant response rating [10, 22] | Plant response rating, Foxtail, Giant ([12]; Preemergence, 500 g ai/ha) | Lambsquarters plant response rating [13, 20] | Lambsquarters plant response rating [13, 22] | Surinam Grass plant response rating [15, 20] | Surinam Grass plant response rating [15, 22]
98: Plant response rating, Goosegrass [4, 21]
80: Plant response rating, Nightshade [6, 21] | Johnsongrass plant response rating [10, 19] | Foxtail, Giant plant response rating [12, 23]
90: Johnsongrass plant response rating [10, 20] | Foxtail, Giant plant response rating [12, 24] | Lambsquarters plant response rating [13, 19]
85: Plant response rating, Foxtail, Giant [3, 21] | Surinam Grass plant response rating [15, 19] | Plant response rating, Surinam Grass [15, 21]
5: Ragweed plant response rating [17, 20]
10: Plant response rating, Ducksalad ([1]; 62 g ai/ha) | Plant response rating, Barnyardgrass ([2]; 62 g ai/ha) | Pigweed plant response rating [8, 24] | Plant response rating, Rice ([11]; 62 g ai/ha)
